Source: patent EP1145714A1, “DRUGS” (Takeda Chemical Industries, Ltd., priority 1998, dated 2000)

System: acute vomiting induced by a central emetic agent loperamide in dogs
Assay: Acute vomiting induced by loperamide in dogs
Type: in vivo, beagle dogs
Conditions: loperamide 1 mg/kg subcutaneous
Procedure: 3 male or female beagle dogs (7.7 to 12.7 kg) per one group were used. Loperamide was subcutaneously given at 1 mg/ml/kg. 2.5 hours prior to loperamide administration, a small amount of a feed was given to the animals. 30 minutes thereafter, predetermined doses of the compound No. 3 were orally given. Similarly, 0.5 % methyl cellulose solution was orally given to a control animal group under no fasting. Predetermined doses of naloxone and ondansetron were given intravenously and orally, respectively to the animals under fasting, 30 minutes prior to loperamide administration. The frequency of vomiting was counted, up to 3 hours after loperamide administration. The compound No. 3 was dissolved in 0.5 % methyl cellulose solution, for oral dosing at a ratio of 0.25 to 1 ml per 1 kg body weight. Additionally, naloxone was intravenously given in a solution at a concentration of 0.05 % w/v. An injection of ondansetron at a concentration of 0.2 % w/v was orally given. Still additionally, 0.5 % methyl cellulose solution was orally given at a ratio of 1 ml per 1 kg body weight. The data relating to the frequency of vomiting, the latency and the time period from the occurrence of vomiting to the termination thereof were statistically analyzed by the Dunnett test, with reference to the difference from the control group.
The vomiting suppression ratio was calculated by the following formula. [Frequency of retching or vomiting in control] - [Frequency of retching or vomiting in animals dosed with compound No. 3] / [frequency of retching or vomiting in control] x 100 (%) [formula]

C=CCN1CC[C@]23c4c5ccc(O)c4O[C@H]2C(=O)CC[C@@]3(O)[C@H]1C5 [Naloxone, naloxone, reference compound]
Vomiting suppression ratio (0.5 mg/kg i.v.): 93 % b | B: Frequency of vomiting (mean ± SD) (0.5 mg/kg i.v., 3 hours): 0.7 ± 0.7 b | C: Time period until first vomiting (minute; mean ± SD) (0.5 mg/kg i.v., 3 hours): 2.61± 0.39b minute | D: Duration of vomiting (minute; mean ± SD) (0.5 mg/kg i.v., 3 hours): 0.01 ± 0.01 b minute | Number of dogs with vomiting/number of tested dogs (0.5 mg/kg i.v., 3 hours): 1/3 | Effect on vomiting (in words) (0.5 mg/kg intravenous): almost completely suppressed
